Measured values published in patent US20110098177A1, “METHODS AND COMPOSITIONS OF PLANT MICRONUTRIENTS” (NOVUS INTERNATIONAL INC., priority 2006, published 2011).
Read-outs that look alike come from different tables or passages of the source.

How the values were obtained:
Assay type in all cases: in vivo
Aristotle bell pepper = tested on: Aristotle bell pepper
Description: (§1) The following experiments were performed in a green house during the fall of 2007 at GCREC, Balm, University of Florida. Fifteen products, at 3 different application rates were examined. The plot size was 2-gallon pots. Crop set-up, procedures and variables were as follows.
(§2) Transplants of ‘Florida-47’ tomato and ‘Aristotle’ bell pepper plants in the 4-true leaf stage (about 6 inches tall) were planted in 2-gal pots on Aug. 27, 2007. Pots were filled with a commercially available planting medium. This medium was selected based on the mineral composition of the products to be applied without providing significant nutritional inputs to the crops. Irrigation was provided with drip lines delivering between 0.50 and 0.33 gal/day/pot for tomato and bell pepper, respectively, and the crops were irrigated three times per day. No foliar pesticides were necessary.
(§3) There were four control treatments corresponding to each target micronutrient in which non-Fe, non-Mn, non-Zn or non-Cu pots received all other essential nutrients under non-limiting conditions.
(§4) Treatments were applied at three rates (high, medium and low) obtained from the estimated concentration of Zn, Fe, Cu, and Mn foliarly-applied in tomato and bell pepper in field situations (Table 1). Products were weighed and dissolved in 200 ml of deionized water with a non-ionic surfactant and applied to the newly-matured open leaves of each crop at 3 and 7 weeks after transplant (WAT). Treated pots were isolated during application to avoid cross-contamination of other treatments.
(§5) Medium nutrient concentration was determined 1 week before treatment. The mineral composition of the medium was 26.8 ppm NH4—N, 49 ppm NO3—N, 15.8 ppm P, 91.2 ppm K, 82.3 ppm Ca, 58.2 ppm Mg, 23.9 ppm Na, 125.6 ppm S, 1.33 ppm Fe, 0.39 ppm Mn, 0.35 ppm Zn, 0.05 pp, Cu, 0.04 ppm B, 0 ppm Mo, 0.73 ppm Al, and 12.1 ppm Si. The pH of the medium was 5.36 and the electric conductivity was 1.38 mS/cm. The foliar tissue analysis was performed at 6 WAT and the concentration of N, P, K, Mg, Ca, S, B, Zn, Mn, Fe, and Cu was determined by a commercial laboratory. Plant toxicity was determined at 4 WAT by using a 0-10 visual scale, where 0=no visible damage and 10=total plant death. Marketable fruit weight was collected 2 times in bell pepper and 4 times in tomato following USDA standards.
(§6) Data were analyzed using a general linear model, and means were separated using orthogonal contrasts at the 5% significance level.

Florida-47 tomato = tested on: Florida-47 tomato
Description: as §1, §2, §3, §4, §5, §6

Tygress tomato plants [1] = experiment: Foliar nutrient concentration at 6 WAT, open-field tomato (Examples 7-10); details: in vivo
Description: The following experiments were performed in open-field plots during the spring of 2008 at GCREC, Balm, University of Florida. Four products delivering Zn (BIOX-Z), Mn (BIOX-M), Cu (BIOX-Cu), and Fe (BIOX-Fe) were compared to other micronutrient supplement formulations in tomato and bell pepper plants.
The plot sizes for the tomato plants were 30-ft plots (15 plants per plot) and 15-ft plots were used for the bell pepper plants (30 plants per plot). Crop set-up, procedures and variables were as follows.
Transplants of ‘Tygress’ tomato plants and ‘Patriot’ bell pepper plants in the 4-true leaf stage (about 6 inches tall) were planted in raised beds in open-field plots. The cross-section of each raised bed was 28 inches wide at the top, 32 inches wide at the base, and 8 inches tall. Irrigation and non-micronutrient fertilizer were provided daily through two drip lines per bed (0.45 gal/100 ft bed/min) at recommended rates for tomato and bell pepper production in Florida. […] The height of the plants for each of the treatment groups was measured at 3 weeks after transplantation (WAT), just prior to treatment with the experimental foliar fertilizers.
All foliar fertilizers except BIOX-CM were applied to the various treatment groups at 3 weeks after transplantation (WAT) and again at 5 WAT. The BIOX-CM treatment was applied at 4 and 5 WAT. The working water volume was 60 gal/acre and a non-ionic surfactant (Ad-Spray 80) was added in the amount of 2 pints/100 gal water. All plots were sprayed with sprayers pressurized at 25 psi and the canopies of both crops were covered with the micronutrient solutions. Treated plots were isolated during foliar fertilizer application to avoid the cross-contamination of other treatments on adjoining plots.
Leaf samples were collected from the most recent mature leaves from each plant at 6 WAT (2 weeks after initial treatment). Foliar tissue analysis was performed by a commercial laboratory to determine the concentration of N, P, K, Mg, Ca, B, Zn, Mn, Fe, and Cu. Tomato marketable fruit weights were collected at 10 and 12 WAT, and the fruits were graded according to USDA standards. Pepper marketable fruit weights were determined beginning at 5 WAT over 5 weekly harvests. Fruit mineral analysis (N, P, K, Mg, Ca, B, Zn, Mn, Fe, and Cu) was performed on samples from the tomato harvest.
The experimental design was a randomized complete block design with 5 replications for each treatment. All comparison data were analyzed using a general linear model and the means of each treatment were separated with a Fisher's protected LSD test at the 5% significance level.

Tygress tomato plants [2] = experiment: Foliar nutrient concentration at 7 WAT, greenhouse tomato spring 2009 (Examples 13-15)
Description: (§7) The following experiments were performed in a green house during the spring of 2009 at GCREC, Balm, University of Florida. Crop set-up, procedures and variables were as follows.
(§8) Transplants of ‘Tygress’ tomato plants were planted in 2-gallon pots filled with commercial planting medium with nutrient concentration of Fe, Zn, Mn, Cu being negligible and insufficient for crop growth. Irrigation and non-micronutrient fertilizer were provided daily through microsprinklers at recommended rates for tomato production in Florida. No pesticides were used. Treatments were as described in Tables 42, 43, and 44 below. BIOX-Cu was compared to Cu-sulfate, BIOX-EDC, and BIOX-O; and BIOX-Fe was compared to Fe-sulfate and BIOX-EDF. BIOX-MEZ is Ca-HMTBA.
(§9) Treatments were applied at 6 WAT (weeks after transplanting) using a water volume of 200 mL/plant. Deionized water was used for foliar applications. A non-ionic surfactant was added. Other nutrients were applied as appropriate under non-limiting conditions.
Foliar tissue nutrient analysis was performed at 3 WAT (i.e., 3 weeks before treatment) and 7 WAT (i.e., 1 weeks after treatment) on the non-applied newest leaves. The concentrations of N, P, K, Mg, Ca, B, Zn, Mn, Fe, and Cu in the foliar tissue were determined by a commercial laboratory. There were no significant differences between the foliar nutrient concentrations of any of the treatment groups prior to treatment.
(§10) Experimental design was a randomized complete block design with 6 replications. Data were analyzed using a general linear model, and means were separated using an LSD test at the 5% significance level.

Tygress tomato plants [3] = experiment: Yields of tomato fruits, greenhouse spring 2009 (Examples 13-15)
Description: as §7, §8, §9
Marketable fruit were collected three times during the growing season, starting at 10 WAT (4 weeks after the initial treatment). Tomato fruit was graded as marketable and non-marketable. Marketable fruit was sized as extra-large, large, and medium. Non-marketable fruit were harvested and number and weight recorded but not sized.
as §10

Tygress tomato plants [4] = details: for Toxicity (0-10): 0=no injury, 10=plant death
Description: as §7, §8, §9
Toxicity of the treatments was assessed by rating foliar tissue using a visual scale, where 0=no injury and 10=plant death.
as §10

[5] = High rate, 1 week after treatment, scale 0 = no visible injury, 10 = plant death
[6] = Low rate, 1 week after treatment, scale 0 = no visible injury, 10 = plant death
[7] = Medium rate, 1 week after treatment, scale 0 = no visible injury, 10 = plant death
[8] = tomato and bell pepper plants stated together, Fall 2007 greenhouse
[9] = BIOX-Cu at 0.46 and 0.55 lb/acre, Cu-sulfate at 0.8 lb/acre, BIOX-EDC at 0.4 lb/acre

**Q.** What does the source list for NCC(=O)[O-].NCC(=O)[O-].[Cu+2] [BIOX-GC, copper glycinate]?
**A.** Pepper toxicity (Aristotle bell pepper; in vivo): 7; Foliar injury (in words) (Florida-47 tomato; in vivo): from light leaf speckling to severe necrosis and plant decay; Tomato toxicity (Florida-47 tomato; in vivo): 7; Toxicity scale score (Florida-47 tomato; in vivo): 7; Foliar Zn concentration of tomato plants, statement (Tygress tomato plants [1]): slightly higher foliar Zn concentration

**Q.** For O=S(=O)([O-])[O-].[Fe+2] [BIOX-INI, ferrous sulfate], which Pepper toxicity (Aristotle bell pepper; in vivo) is on record?
**A.** Its Pepper toxicity is 7.

**Q.** What about the “Foliar injury (in words)” value (Florida-47 tomato; in vivo) of the same compound?
**A.** The value was “from light leaf speckling to severe necrosis and plant decay”.

**Q.** And the Tomato toxicity (Florida-47 tomato; in vivo)?
**A.** Its Tomato toxicity is 7.

**Q.** What about the Toxicity scale scores (Florida-47 tomato; in vivo) of the same compound?
**A.** Its Toxicity scale scores is 7-9.

**Q.** And the “Foliar Fe concentration in tomato leaves, statement” value (Tygress tomato plants [2]; 7 WAT (1 week after treatment))?
**A.** The value was “highest Fe concentrations”.

**Q.** What about the “Marketable tomato yields compared to non-treated control, statement” value (Tygress tomato plants [3]; BIOX-Fe at all levels, Fe-sulfate at 2.0 lb/acre, BIOX-EDF at 0.3 lb/acre) of the same compound?
**A.** The value was “decreased marketable yields relative to the non-treated control”.

**Q.** And the “Toxicity relative to the non-treated control, statement” value (Tygress tomato plants [4]; all levels of BIOX-Fe, Fe-sulfate at 2.0 lb/acre, BIOX-EDF at 0.3 lb/acre)?
**A.** The value was “increased toxicity”.

**Q.** Which results are given for O=S(=O)([O-])[O-].[Cu+2] [Cu sulfate]?
**A.** Foliar Cu concentration (Tygress tomato plants [2]; Cu 0.8 lb/acre, tomato leaves 1 week after treatment): 986 ppm; Marketable yield (Tygress tomato plants [3]; Cu 0.8 lb/acre): 1200 b g/plant; Toxicity (0-10) (Tygress tomato plants [4]; Cu 0.8 lb/acre): 6

**Q.** For O=S(=O)([O-])[O-].[Fe+2] [Fe sulfate], which “Foliar Fe concentration” value (Tygress tomato plants [2]; Fe 2.0 lb/acre, tomato leaves 1 week after treatment) is on record?
**A.** The value was 888 ppm.

**Q.** What about the Marketable yield (Tygress tomato plants [3]; Fe 2.0 lb/acre) of the same compound?
**A.** Its Marketable yield is 1100 g/plant.

**Q.** And the “Toxicity (0-10)” value (Tygress tomato plants [4]; Fe 2.0 lb/acre)?
**A.** Its value is 5.

**Q.** What does the source list for EDTA chelated copper [BIOX-EDC]?
**A.** Pepper toxicity (Aristotle bell pepper; [5]): 8; Pepper toxicity (Aristotle bell pepper; [6]): 8; Pepper toxicity (Aristotle bell pepper; [7]): 8; Tomato toxicity (Florida-47 tomato; [5]): 8; Tomato toxicity (Florida-47 tomato; [6]): 8; Tomato toxicity (Florida-47 tomato; [7]): 8; Toxicity scale score (Florida-47 tomato; comparable ranges of copper concentrations (0.004% to 0.061% by weight), scale 0-10, both crops): 8; Foliar injury (in words) (Florida-47 tomato; [8]): from light leaf speckling to severe necrosis and plant decay; Copper concentrations in tomato leaves, statement (Tygress tomato plants [2]; 7 WAT (1 week after treatment)): highest leaf copper concentrations; Foliar Cu concentration (Tygress tomato plants [2]; Cu 0.4 lb/acre, tomato leaves 1 week after treatment): 678 ppm; Marketable tomato yields compared to non-treated control, statement (Tygress tomato plants [3]; [9]): did not alter marketable yields relative to the non-treated control; Marketable yield (Tygress tomato plants [3]; Cu 0.4 lb/acre): 1550 b g/plant; Toxicity compared to non-treated control plants, statement (Tygress tomato plants [4]; [9]): increased levels of toxicity; Toxicity (0-10) (Tygress tomato plants [4]; Cu 0.4 lb/acre): 6

**Q.** With EDTA chelated iron [BIOX-EDI] as the compound, how does the Pepper toxicity (Aristotle bell pepper; [5]) read?
**A.** Its Pepper toxicity is 9.

**Q.** And the Pepper toxicity (Aristotle bell pepper; [6])?
**A.** The Pepper toxicity was 9.

**Q.** And the Pepper toxicity (Aristotle bell pepper; [7])?
**A.** The Pepper toxicity was 9.

**Q.** And the Tomato toxicity (Florida-47 tomato; [5])?
**A.** Its Tomato toxicity is 8.

**Q.** And the Tomato toxicity (Florida-47 tomato; [6])?
**A.** Its Tomato toxicity is 8.

**Q.** What about the Tomato toxicity (Florida-47 tomato; [7]) of the same compound?
**A.** Its Tomato toxicity is 8.

**Q.** And the “Foliar injury (in words)” value (Florida-47 tomato; [8])?
**A.** The value was “from light leaf speckling to severe necrosis and plant decay”.

**Q.** manganese glycinate [BIOX-GM] was tested. Which Pepper toxicity (Aristotle bell pepper; [5]) did it give?
**A.** The Pepper toxicity was 7.

**Q.** And the Pepper toxicity (Aristotle bell pepper; [6])?
**A.** Its Pepper toxicity is 7.

**Q.** And the Pepper toxicity (Aristotle bell pepper; [7])?
**A.** Its Pepper toxicity is 7.

**Q.** What about the Tomato toxicity (Florida-47 tomato; [5]) of the same compound?
**A.** Its Tomato toxicity is 7.

**Q.** What about the Tomato toxicity (Florida-47 tomato; [6]) of the same compound?
**A.** Its Tomato toxicity is 7.

**Q.** What about the Tomato toxicity (Florida-47 tomato; [7]) of the same compound?
**A.** The Tomato toxicity was 7.

**Q.** What about the Toxicity scale score (Florida-47 tomato; similar manganese concentrations (0.015% to 0.124% by weight), scale 0-10, both crops) of the same compound?
**A.** The Toxicity scale score was 7.

**Q.** And the “Foliar injury (in words)” value (Florida-47 tomato; [8])?
**A.** Its value is “from light leaf speckling to severe necrosis and plant decay”.
